Tests used:
[1] = system: MCF-10A cells, human fibrocystic mammary gland epithelial cells; experiment: Cell proliferation assay (ViaLight Plus, ATP); assay type: cell-based; details: MCF10A, 72 hours
Protocol: Cells with no treatment are the controls. Plates are incubated at 37° C. for 72 hours.

[2] = system: MCF-7 human breast adenocarcinoma cells; experiment: Cell proliferation assay (ViaLight Plus, ATP); assay type: cell-based; details: MCF7, 72 hours
Protocol: (§1) MCF-7 human breast adenocarcinoma cells (ATCC) are maintained in Eagle's Minimal Essential Medium supplemented with 10% FBS (Gibco-BRL), 1% Penicillin-Streptomycin-Glutamine and 10 nM 17β Estradiol, (Sigma). MCF-10A cells, human fibrocystic mammary gland epithelial cells (ATCC) and HMEC, human mammary gland epithelial cells (Cambrex) are maintained in mammary epithelial complete growth medium (MEGM) containing the Bullet Kit (Cambrex Bio Sciences).
(§2) Cells are seeded on 24-well plates at 20-25×10^3 cells/well in 0.4-0.5 ml of their respective media. […] Cells with no treatment are the controls. Plates are incubated at 37° C. for 72 hours. Cell proliferation is measured using ViaLight Plus Cell Proliferation and Cytotoxicity BioAssay Kit by quantifying the amount of ATP released from the cells according to manufacture's protocol.
Cell culture plates are warmed up to room temperature for 5 minutes and 200 μl of cell lysis reagent is added to each well. After incubation at room temperature for 10 minutes with intermediate swirling of the plate, 100 μl of the sample from each well is loaded in triplicate in a white 96-well microtiter plate, Dynex Microlite 1+, for vialight assay. The ATP monitoring reagent (AMR) is reconstituted in assay buffer and allowed to equilibrate for 15 minutes at room temperature.
(§3) The luminometer and associated WinGlow software program are set up and primed with reconstituted AMR. The plate is placed in the luminometer and 100 μl of reconstituted AMR is dispensed per well. The luminometer is programmed to take one second integrated reading of each appropriate well. The plates are incubated for 2 minutes at room temperature in the luminometer and one second integrated reading of each appropriate well is initiated.
Average RLU (relative luciferase unit) values for each set of triplicate wells, using Winglow software and Microsoft Excel, is calculated and graphed. Effects of various treatments are calculated by plotting the percent of inhibition of cell proliferation versus the concentration of treatment. Percent inhibition of cell proliferation is calculated using the formula: […]

[3] = system: HMEC, human mammary gland epithelial cells; details: 72 hours
Protocol: as §1
as §2, with “protocol. […]” for “protocol.”
as §3, with “The plate is placed in the luminometer and 100 μl of reconstituted AMR is dispensed per well.” left out
Average RLU (relative luciferase unit) values for each set of triplicate wells, using Winglow software and Microsoft Excel, is calculated and graphed. […]

[4] = system: MCF10A cells; details: GLA 0, 50, 100 μM, 48 hours
Protocol: (§4) Cells are grown in T75 flasks up to 70-80% confluence before being treated with desired fatty acids conjugated with BSA for 48 hours at 37° C. at various concentrations (0, 50, 100 μM). After incubation, the cells are trypsinized from the flask and the cell suspensions are pooled and collected in 50 ml tubes. Each cell type and each treatment is done in duplicate. Cell suspensions are then centrifuged at 1000 rpm for 10 minutes each. Supernatants are discarded and the pellets suspended in phosphate buffered saline. The cells are washed twice with 10 ml of PBS (Phosphate buffer saline) at each step and centrifuged. The pellets are re-suspended in 10 ml of PBS and counted and the cell numbers are normalized for the experiment. The cell suspension is centrifuged again and the pellets stored at −80° C. until lipid extraction is performed.
(§5) Briefly, each cell pellet from a 50 ml culture is vortexed with 6 ml of methanol, followed by the addition of 12 ml of chloroform and 100 μg of tridecanoin (as internal standard). The mixture is incubated at 4° C. overnight. The chloroform layer is extracted and filtered through a Whatman filter with one gram of anhydrous sodium sulfate to remove particulates and residual water. Organic solvents are evaporated to dryness at 40° C. under a stream of nitrogen. […]

[5] = system: MCF7 cells; details: MCF7, GLA 0, 50, 100 μM, 48 hours
Protocol: as §4, §5

[6] = system: thyroid follicular cells; details: well known; cited from earlier work

| SMILES | anti-proliferative activity on fibrocystic cells [1] | anti-proliferative activity on breast cancer cells [2] | anti-proliferative activity on normal breast cells [3] | production of arachidonic acid [4] | production of arachidonic acid [5] | proliferation of thyroid follicular cells [6] |
| --- | --- | --- | --- | --- | --- | --- |
| CCCCC/C=C\C/C=C\C/C=C\CCCCC(=O)O [GLA, (Z,Z,Z)-6,9,12-octadecatrienoic acid] | significant anti-proliferative activity | no effect | no effect | increased production of arachidonic acid | increased production of arachidonic acid |  |
| [I-].[K+] [Iodine, potassium iodide] | does not show any anti-proliferative effect | does not show any anti-proliferative effect |  |  |  | inhibits proliferation |
| O=[Se](=O)([O-])[O-].[Na+].[Na+] [Selenium, sodium selenate] | anti-proliferative activity | anti-proliferative activity | no relative effect |  |  |  |
| CCCCC/C=C\C/C=C\C/C=C\CC(I)C1CCCC(=O)O1 (stereo not drawn) [iodo-arachidonate, 6-iodo-5-hydroxy-eicosatrienoic acid-delta-lactone] |  | significant inhibitory effect |  |  |  |  |

— patent publication US8663679B2, “Compositions for improving breast health in women” (Abbott Laboratories, priority 2004, dated 2014)
